Data on one molecule can be found in article PMC11596536, “Unveiling the Anticancer Potential of a New Ciprofloxacin-Chalcone Hybrid as an Inhibitor of Topoisomerases I & II and Apoptotic Inducer” (Molecules, 2024).

The test concerns the target T1, Topoisomerase I (Homo sapiens, UniProt P11387).
T1 construct: gene TOP1
T1 sequence (P11387 2-765): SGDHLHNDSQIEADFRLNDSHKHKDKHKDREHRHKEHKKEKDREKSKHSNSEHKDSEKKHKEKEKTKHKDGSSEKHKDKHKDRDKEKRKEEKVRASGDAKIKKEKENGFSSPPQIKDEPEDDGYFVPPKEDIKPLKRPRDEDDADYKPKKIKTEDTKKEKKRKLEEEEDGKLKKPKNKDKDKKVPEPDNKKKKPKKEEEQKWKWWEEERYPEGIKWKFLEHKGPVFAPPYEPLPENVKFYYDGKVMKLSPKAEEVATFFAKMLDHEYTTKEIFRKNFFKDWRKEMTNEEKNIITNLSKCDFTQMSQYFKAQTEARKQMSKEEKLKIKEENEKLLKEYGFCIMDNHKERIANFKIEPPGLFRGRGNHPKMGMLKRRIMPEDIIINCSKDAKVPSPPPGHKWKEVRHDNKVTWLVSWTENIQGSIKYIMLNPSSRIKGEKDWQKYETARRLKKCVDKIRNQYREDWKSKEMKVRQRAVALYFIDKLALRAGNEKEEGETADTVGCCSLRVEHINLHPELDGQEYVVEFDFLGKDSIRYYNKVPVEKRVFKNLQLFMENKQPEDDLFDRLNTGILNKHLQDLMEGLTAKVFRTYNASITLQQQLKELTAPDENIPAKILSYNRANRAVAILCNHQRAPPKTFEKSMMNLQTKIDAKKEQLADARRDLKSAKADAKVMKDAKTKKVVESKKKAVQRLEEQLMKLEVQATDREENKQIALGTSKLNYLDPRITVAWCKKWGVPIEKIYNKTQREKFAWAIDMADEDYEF
The test is described as follows: Topo I DNA relaxation assay (commercial kit), agarose gel electrophoresis. The test is classed as biochemical.

For `O=C(/C=C/c1ccc(Cl)cc1)c1ccc(NC(=O)N2CCN(c3cc4c(cc3F)c(=O)c(C(=O)O)cn4C3CC3)CC2)cc1` [compound 2, 7-(4-((4-(3-(4-Chlorophenyl)acryloyl)phenyl)carbamoyl)piperazin-1-yl)-1-cyclopropyl-6-fluoro-4-oxo-1,4-dihydroquinoline-3-carboxylic acid], half-maximal inhibition (IC50) was put at 37.5 µM.

Broadly, the IC50 is the midpoint of a concentration-inhibition curve.
